Reference: article PMC8306930, “A Comparative Analysis of the In Vitro Anticancer Activity of Iridium(III) {η^5-C5Me4R} Complexes with Variable R Groups” (International Journal of Molecular Sciences, 2021)

Experiments:
[1] = test system: SW620 human colorectal adenocarcinoma cells; test: MTT viability assay, SW620; type: cell-based; details: SW620, 72 h exposure, mean ± SD
Description: (§1) The rat astrocytoma C6 cell line and murine melanoma B16 cell line were kindly gifted by Dr. L. Harhaji–Trajkovic, Institute for Biological Research “Sinisa Stankovic”—National Institute of Republic of Serbia (IBISS), and from Dr. Sinisa Radulovic (Institute for Oncology and Radiology of Serbia), respectively. Human colorectal (SW620 and HCT116), breast (MCF-7), and ovarian (A2780) cancer cell lines and non-malignant fibroblast cell line (MRC5) were purchased from the American Type Culture Collection (ATCC, Manassas, Virginia, USA). […] For viability assays, cells were seeded in listed densities/well: B16 and C6: 3 × 10^3; SW620: 9 × 10^3; A2780 and HCT116: 5 × 10^3; MCF-7: 8 × 10^3 and MRC5: 7 × 10^3. For flow cytometry, A2780 cells were seeded at 2 × 10^5 density/well in 6-well plates. Peritoneal macrophages were collected from the peritoneal cavity of C57BL/6 mice from the animal facility of IBISS by cavity lavage with ice-cold PBS. […] Macrophages were counted, seeded at 2 × 10^5 cells/well in 96-well plates for viability assay, and then left for 2 h to adhere. Before treatment, non-adherent cells were removed. The handling of animals and protocol for obtaining macrophages is in the agreement with the rules of the European Union and approved by the Institutional Animal Care and Use Committee at IBISS (No. 02-09/16).
(§2) Stock solutions of 1b, 1c, 1d, and 1e were prepared in ethanol at concentration of 20 mM and kept at −20 °C, while 10 mM stock solution of cisplatin was prepared in DMF just before the usage. Desired final concentrations were obtained by dilution in culture medium.
(§3) Cells were treated with various concentrations (up to 50 or 100 µM) of the above-mentioned complexes for 72 h. For the detection of mitochondrial respiration, cells were cultivated in the presence of MTT staining solution (0.5 mg/mL) for approximately 1 h at 37 °C. The dye was then discarded, and the formed formazan crystals (purple) were dissolved in DMSO. For an evaluation of viable attached cells, cells were fixed with 4% PFA for 10 min at room temperature, and subsequently stained for 15 min with 0.02% CV solution. […] The absorbance was measured with an automated microplate reader at 540 nm, with a reference wavelength of 670 nm. The IC50 values were calculated using a four-parameter logistic function and presented as mean ± SD from three independent experiments.

A2780 cells [2] = test: Mitochondrial membrane potential, DiOC6(3) flow cytometry; type: cell-based, human; details: A2780, IC50 doses, 24 h, in comparison with untreated cells
Experimental: (§4) Experiments were carried out in three independent replicates.

B16 mouse melanoma cells [3] = test: MTT viability assay, B16; type: cell-based; details: B16, 72 h exposure, mean ± SD
Description: as §1, §2, §3

C6 rat glioma cells [4] = test: MTT viability assay, C6; type: cell-based; details: C6, 72 h exposure, mean ± SD
Description: as §1, §2, §3

[5] = test system: A2780 human ovarian cancer cells; test: CV viability assay, A2780; type: cell-based; details: A2780, 72 h exposure, mean ± SD
Description: as §1, §2, §3

A2780 cells [6] = test: ROS/RNS, DHR123 flow cytometry; type: cell-based, human; details: A2780, IC50 doses, 48 h, DHR123, with respect to untreated cultures
Experimental: as §4

[7] = test system: SW620 human colorectal adenocarcinoma cells; test: CV viability assay, SW620; type: cell-based; details: SW620, 72 h exposure, mean ± SD
Description: as §1, §2, §3

[8] = test system: HCT116 human colorectal carcinoma cells; test: CV viability assay, HCT116; type: cell-based; details: HCT116, 72 h exposure, mean ± SD
Description: as §1, §2, §3

C6 rat glioma cells [9] = test: CV viability assay, C6; type: cell-based; details: C6, 72 h exposure, mean ± SD
Description: as §1, §2, §3

A2780 cells [10] = details: A2780, IC50 doses, 48 h, AnnV/PI
Experimental: as §4

[11] = Stability in D2O mixtures by 1H NMR; type: physicochemical; details: DMSO-d6/D2O 2:1, 72 h at 37 °C, 1H NMR, dimethyl sulfone standard
Experimental: Complexes were dissolved in acetone-d6/D2O 2:1 (1b,d), DMSO-d6/D2O 2:1 (2a–d and 3), or methanol-d4/D2O 2:1 (1c) ([Ir] ≈ 10^−3 mol L^−1), then dimethyl sulfone (0.05 mL, 0.164 mmol) was added as internal standard. The mixtures were filtered through a celite pad, and the filtrated solutions were analyzed by ^1H NMR spectroscopy.
The solutions were then stored for 72 h at 37 °C, and new NMR analyses were subsequently performed.

[12] = test system: A2780 human ovarian cancer cells; test: MTT viability assay, A2780; type: cell-based; details: A2780, 72 h exposure, mean ± SD
Description: as §1, §2, §3

A2780 cells [13] = test: Intracellular nitric oxide, DAF-FM flow cytometry; type: cell-based, human; details: A2780, IC50 doses, 48 h, with respect to untreated cultures
Experimental: as §4

[14] = test system: MCF-7 human breast cancer cells; test: MTT viability assay, MCF-7; type: cell-based; details: MCF-7, 72 h exposure, mean ± SD
Description: as §1, §2, §3

A2780 cells [15] = test: Senescence, FDG assay of beta galactosidase activity, flow cytometry; type: cell-based, human; details: A2780, IC50 doses, 48 h, in comparison to the control
Experimental: as §4

[16] = test system: MCF-7 human breast cancer cells; test: CV viability assay, MCF-7; type: cell-based; details: MCF-7, 72 h exposure, mean ± SD
Description: as §1, §2, §3

[17] = test system: HCT116 human colorectal carcinoma cells; test: MTT viability assay, HCT116; type: cell-based; details: HCT116, 72 h exposure, mean ± SD
Description: as §1, §2, §3

[18] = Octanol/water partition coefficient, shake-flask method with UV-Vis; details: 21 °C, mean ± standard deviation
Experimental: (a) Octanol/water partition coefficients (Log Pow). Partition coefficients (Pow; IUPAC: KD partition constant), defined as Pow = corg/caq, where corg and caq are molar concentrations of the selected compound in the organic and aqueous phase, respectively, were determined by the shake-flask method and UV-Vis measurements. Deionized water and 1-octanol were vigorously stirred for 24 h, to enable saturation of both phases, then separated by centrifugation. A stock solution of the selected iridium compound (ca. 2 mg) was prepared by first adding acetone (50 μL, to help solubilization), followed by water-saturated octanol (2.5 mL). The solution was diluted with water-saturated octanol (ca. 1:3 v/v ratio, cIr ≈ 10^−4 M, so that 1.5 ≤ A ≤ 2.0 at λmax) and its UV-Vis spectrum was recorded (A^0org). An aliquot of the solution (Vorg = 1.2 mL) was transferred into a test tube and octanol-saturated water (Vorg = Vaq = 1.2 mL) was added. The mixture was vigorously stirred for 30 min at 21 °C then centrifuged (5000 rpm, 5 min). The UV-Vis spectrum of the organic phase was recorded (A^forg) and the partition coefficient was calculated as Pow = A^forg/(A^0org − A^forg) where A^0org and A^forg are the absorbance in the organic phase before and after partition with the aqueous phase, respectively. The wavelength of the maximum absorption of each compound (ca. 300 nm) was used for UV-Vis quantitation.

B16 mouse melanoma cells [19] = test: CV (crystal violet) viability assay, B16; type: cell-based; details: B16, 72 h exposure, mean ± SD
Description: as §1, §2, §3

[20] = test system: MRC5 human fibroblast cells; test: MTT viability assay, MRC5; type: cell-based; details: MRC5, 72 h exposure, mean ± SD
Description: as §1, §2, §3

A2780 cells [21] = test: Autophagosomes, acridine orange flow cytometry; type: cell-based, human; details: A2780, IC50 doses, 48 h, AO
Experimental: as §4

A2780 cells [22] = test: Cell proliferation, CFSE flow cytometry; type: cell-based, human; details: A2780, IC50 doses, 72 h of incubation
Experimental: as §4

[23] = test system: primary mouse peritoneal cells; test: Viability of primary mouse peritoneal cells (macrophages); type: cell-based
Description: The rat astrocytoma C6 cell line and murine melanoma B16 cell line were kindly gifted by Dr. L. Harhaji–Trajkovic, Institute for Biological Research “Sinisa Stankovic”—National Institute of Republic of Serbia (IBISS), and from Dr. Sinisa Radulovic (Institute for Oncology and Radiology of Serbia), respectively. Human colorectal (SW620 and HCT116), breast (MCF-7), and ovarian (A2780) cancer cell lines and non-malignant fibroblast cell line (MRC5) were purchased from the American Type Culture Collection (ATCC, Manassas, Virginia, USA). […] For viability assays, cells were seeded in listed densities/well: B16 and C6: 3 × 10^3; SW620: 9 × 10^3; A2780 and HCT116: 5 × 10^3; MCF-7: 8 × 10^3 and MRC5: 7 × 10^3. For flow cytometry, A2780 cells were seeded at 2 × 10^5 density/well in 6-well plates. […] Macrophages were counted, seeded at 2 × 10^5 cells/well in 96-well plates for viability assay, and then left for 2 h to adhere. […]
Cells were treated with various concentrations (up to 50 or 100 µM) of the above-mentioned complexes for 72 h. […] The absorbance was measured with an automated microplate reader at 540 nm, with a reference wavelength of 670 nm. The IC50 values were calculated using a four-parameter logistic function and presented as mean ± SD from three independent experiments.

[24] = Stability in RPMI-1640 cell culture medium by UV-Vis; type: physicochemical; details: 37 °C, 24 h
[25] = test system: MRC5 human fibroblast cells; test: CV viability assay, MRC5; type: cell-based; details: MRC5, 72 h exposure, mean ± SD
Description: as §1, §2, §3

SMILES	IC50 [1]	IC50 (B16 mouse melanoma cells [3])	IC50 (C6 rat glioma cells [4])	IC50 [5]	IC50 [7]	IC50 [8]	IC50 (C6 rat glioma cells [9])	Fraction of unaltered compound [11]	IC50 [12]	IC50 [14]	IC50 [16]	IC50 [17]	Log Pow [18]	IC50 (B16 mouse melanoma cells [19])	IC50 [20]	Stability in RPMI-1640 cell culture medium [24]	IC50 [25]	other results
Cc1c(C)c(C)[c-](-c2ccc(F)cc2)c1C.[Cl-].[Ir+3].[c-]1ccccc1-c1ccccn1 [Complex 2d, (1-(4-fluorobenzene)-2,3,4,5-tetramethylcyclopentadienyl)(2-phenylpyridine)iridium(III)chloride]	2 ± 0.1 µM	1.2 ± 0.2 µM	2 ± 0.01 µM	1.8 ± 0.1 µM	2 ± 0.2 µM	5.3 ± 1.3 µM	2.1 ± 0.1 µM	97%	1.3 ± 0.1 µM	2.5 ± 0.2 µM	6.8 ± 0.7 µM	1.3 ± 0.3 µM	1.3 ± 0.2	1.7 ± 0.4 µM	2.4 ± 0.3 µM	did not change	2.1 ± 0.6 µM	Mitochondrial membrane hyperpolarization (A2780 cells [2]): 48.6%; Increase of intracellular levels of H2O2, HOCl and ONOO− (in total) (A2780 cells [6]): 36.3%; Induction of apoptotic cell death (A2780 cells [10]): modest induction; Increase of intracellular level of NO (A2780 cells [13]): 38%; Increase of beta galactosidase activity (A2780 cells [15]): 31%; High percentage of autophagosomes (A2780 cells [21]): not recognized; Effect on cell proliferation (A2780 cells [22]): inhibition of cell proliferation; Effect on viability of primary mouse peritoneal cells [23]: did not affect viability
CCC[c-]1c(C)c(C)c(C)c1C.[Cl-].[Ir+3].[c-]1ccccc1-c1ccccn1 [Complex 2c, (1-(propyl)-2,3,4,5-tetramethylcyclopentadienyl)(2-phenylpyridine)iridium(III)chloride]	10.4 ± 0.4 µM	6.7 ± 0.6 µM	4 ± 0.3 µM	7.2 ± 0.8 µM	12.4 ± 1.5 µM	13 ± 1.1 µM	5.9 ± 0.5 µM	98%	7.3 ± 0.6 µM	12 ± 1.3 µM	17.2 ± 0.1 µM	8 ± 0.6 µM	1.5 ± 0.2	8 ± 2 µM	3.7 ± 0.2 µM	did not change	2.7 ± 0.1 µM	
